Tests used:
[1] = molecular target: T1, α-Glucosidase from Saccharomyces cerevisiae (EC 3.2.1.20) (Saccharomyces cerevisiae, UniProt P53341); experiment: biochemical
T1 construct: purchased Sigma-Aldrich

[2] = molecular target: T1, α-Glucosidase from Saccharomyces cerevisiae (EC 3.2.1.20); experiment: Enzyme inhibitory mechanism and kinetic type assay (Lineweaver-Burk plots); assay type: biochemical; details: compound 0–25 μM
Description: To study the inhibitory mechanisms of all derivatives on α-glucosidase, enzyme inhibitory mechnism was detected using compound 4 with the strongest inhibitory. Figure 3A illustrated the plots of enzyme activity vs. enzyme concentration.
The kinetic type was also studied using Lineweaver-Burk plots.
α-Glucosidase from Saccharomyces cerevisiae (EC 3.2.1.20) and p-Nitrophenyl-α-D-[…] (p-NPG) were purchased from Sigma-Aldrich. All additional reagents and solvents were readily obtained from a commercial source. NMR spectra were obtained on 500 MHz equipment in CDCl3. High-resolution mass spectral (HRMS) data was recorded on Apex II using the ESI technique.
The α-glucosidase inhibitory activity of compounds (1 ∼ 6) was detected as described in previous reports ([Adisakwattana et al., 2009]; [Adisakwattana et al., 2013]; [Zhang et al., 2022]). 10 μl α-glucosidase solution, 10 μl compound were added into 80 μl phosphate buffer, and the mixture was incubated for 10 min. Then, 100 μl p-NPG solution was added into the mixture, followed by the absorbance change detection at 405 nm. The inhibition rate (%) = […] × 100%, where OD1 and OD0 were the absorbance of tested compound and blank, respectively. The IC50 value was calculated from the plot of inhibition rate vs. compound concentration. Acarbose was used as a positive sample. All samples were repeated four times. The enzyme inhibitory mechnism and kinetic type were also determined according to previous reported reports ([Adisakwattana et al., 2004]; [Song et al., 2016]).

T1 sequence (P53341 whole entry): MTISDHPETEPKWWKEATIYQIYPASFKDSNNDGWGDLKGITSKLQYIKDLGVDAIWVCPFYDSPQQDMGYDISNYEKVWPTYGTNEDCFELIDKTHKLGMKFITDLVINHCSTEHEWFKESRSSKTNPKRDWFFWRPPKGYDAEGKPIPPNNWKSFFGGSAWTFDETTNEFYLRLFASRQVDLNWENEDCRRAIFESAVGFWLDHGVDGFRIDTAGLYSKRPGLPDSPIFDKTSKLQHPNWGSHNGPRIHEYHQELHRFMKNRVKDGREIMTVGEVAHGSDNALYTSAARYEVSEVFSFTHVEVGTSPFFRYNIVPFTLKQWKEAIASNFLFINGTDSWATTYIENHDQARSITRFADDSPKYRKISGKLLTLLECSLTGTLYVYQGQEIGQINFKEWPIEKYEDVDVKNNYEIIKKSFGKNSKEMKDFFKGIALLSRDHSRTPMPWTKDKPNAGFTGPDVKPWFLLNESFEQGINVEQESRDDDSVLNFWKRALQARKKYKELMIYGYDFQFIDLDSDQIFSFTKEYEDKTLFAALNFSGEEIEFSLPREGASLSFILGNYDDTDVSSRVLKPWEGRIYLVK

Row | Compound | IC50 [1] | melting point | Inhibition type (Lineweaver-Burk plots of enzyme activity vs. substrate concentration) [2] | Inhibitory mechanism (plots of enzyme activity vs. enzyme concentration) [2] | Inhibition type (Lineweaver-Burk plots of enzyme activity vs. substrate concentration) ([2]; listed as derivative four) | Inhibitory mechanism (plots of enzyme activity vs. enzyme concentration) ([2]; listed as derivative four)
1 | O=C(CCc1ccccc1)Oc1ccc(-c2cc(=O)c3ccccc3o2)cc1 [Compound 1] | 42.06 ± 0.08 µM | 133 to 134 °C |  |  |  | 
2 | Cc1ccc(CCC(=O)Oc2ccc(-c3cc(=O)c4ccccc4o3)cc2)cc1 [Compound 2] | 21.55 ± 0.13 µM | 135 to 136 °C |  |  |  | 
3 | O=C(CCc1ccc(Cl)cc1)Oc1ccc(-c2cc(=O)c3ccccc3o2)cc1 [Compound 3] | 31.09 ± 0.1 µM | 112 to 114 °C |  |  |  | 
4 | O=C(CCc1ccc(Br)cc1)Oc1ccc(-c2cc(=O)c3ccccc3o2)cc1 [Compound 4] | 15.7 ± 0.21 µM | 127 to 129 °C | mix-type inhibition | reversible inhibitor | mixed-type inhibitor | reversible
5 | O=C(CCc1ccc(F)cc1)Oc1ccc(-c2cc(=O)c3ccccc3o2)cc1 [Compound 5] | 19.66 ± 0.04 µM | 103 to 104 °C |  |  |  | 
6 | O=C(CCc1ccc(C(F)(F)F)cc1)Oc1ccc(-c2cc(=O)c3ccccc3o2)cc1 [Compound 6] | 27.54 ± 0.02 µM | 250 to 251 °C |  |  |  | 

Reference: publication PMC9705736, “Synthesis of activity evaluation of flavonoid derivatives as ɑ-glucosidase inhibitors” (Frontiers in Chemistry, 2022)
